Measured values taken from patent US20120058499A1, “Bioluminescent Detection of Protease Activity” (priority 2010, published 2012).

Assays:
SENP2 = SENP2 (Homo sapiens, UniProt Q9HC62); details: enzyme 200 pM; 30 minutes; FIG. 6
Protocol: (§1) The hSUMO2-amino-luciferin substrate was compared to the Z-Arg-Leu-Arg-Gly-Gly (SEQ ID NO: 1)-amino-luciferin substrate (Promega DUB-Glo™ substrate) to determine the specificity and limit of detection of the activities of six (6) different isopeptidases (USP34, USP7, USP8, SENP1, SENP2, and SENP6). For all enzymes, these two substrates were tested in parallel using the DUB-Glo™ assay system (Promega) according to the manufacturer's instructions. All enzymes were diluted into 50 mM HEPES, pH 7.5, 10 mM DTT, 0.1% Prionex® (Sigma-Aldrich). For testing Z-Arg-Leu-Arg-Gly-Gly (SEQ ID NO: 1)-amino-luciferin, final isopeptidase concentrations for all enzymes were equal to approximately 70 pM to 50 nM. For testing hSUMO2-amino-luciferin, final isopeptidase concentrations for all enzymes were equal to approximately 70 pM to 50 nM. […] The signal in relative luminescence units (RLUs) was measured at 30 minutes from reaction assembly on an EnVision™ multi-label plate reader (Perkin Elmer). The signal to background ratio (S/B) was calculated as (maximum signal/(signal in absence of enzyme) plus or minus the corrected standard deviation of triplicate measurements.

SENP6 = SENP6 (Homo sapiens, UniProt Q9GZR1); details: enzyme 200 pM; 30 minutes; FIG. 6
Protocol: as §1

SENP6, sequence (Q9GZR1 whole entry, species assumed): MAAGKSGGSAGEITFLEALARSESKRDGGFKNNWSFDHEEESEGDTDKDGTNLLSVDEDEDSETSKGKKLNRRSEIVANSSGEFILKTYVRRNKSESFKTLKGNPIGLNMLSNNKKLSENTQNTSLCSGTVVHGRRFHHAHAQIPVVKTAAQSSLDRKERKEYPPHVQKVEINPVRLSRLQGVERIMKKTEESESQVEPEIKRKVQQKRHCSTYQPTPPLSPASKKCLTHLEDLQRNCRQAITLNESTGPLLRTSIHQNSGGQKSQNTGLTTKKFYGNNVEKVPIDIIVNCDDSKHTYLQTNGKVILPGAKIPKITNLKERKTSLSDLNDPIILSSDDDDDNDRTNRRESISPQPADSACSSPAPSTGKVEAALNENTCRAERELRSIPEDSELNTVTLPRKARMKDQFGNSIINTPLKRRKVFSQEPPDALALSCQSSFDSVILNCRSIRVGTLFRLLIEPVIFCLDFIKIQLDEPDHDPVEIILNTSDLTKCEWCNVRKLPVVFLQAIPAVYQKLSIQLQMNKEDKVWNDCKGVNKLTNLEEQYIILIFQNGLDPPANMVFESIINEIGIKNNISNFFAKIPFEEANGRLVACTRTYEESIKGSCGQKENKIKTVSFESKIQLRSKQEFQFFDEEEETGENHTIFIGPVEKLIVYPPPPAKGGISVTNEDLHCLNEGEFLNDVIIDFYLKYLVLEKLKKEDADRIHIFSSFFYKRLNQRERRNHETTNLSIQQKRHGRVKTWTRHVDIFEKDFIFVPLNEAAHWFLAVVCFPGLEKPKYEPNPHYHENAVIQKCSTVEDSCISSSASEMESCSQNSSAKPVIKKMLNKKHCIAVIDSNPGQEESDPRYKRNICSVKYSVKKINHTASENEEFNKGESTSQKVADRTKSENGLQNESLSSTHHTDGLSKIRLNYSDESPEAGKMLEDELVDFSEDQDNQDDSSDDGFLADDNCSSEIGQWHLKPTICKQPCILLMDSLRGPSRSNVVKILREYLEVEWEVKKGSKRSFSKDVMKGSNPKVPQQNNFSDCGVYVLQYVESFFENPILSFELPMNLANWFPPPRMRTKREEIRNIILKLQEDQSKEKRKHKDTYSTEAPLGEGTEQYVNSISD
SENP2, sequence (Q9HC62 whole entry, species assumed): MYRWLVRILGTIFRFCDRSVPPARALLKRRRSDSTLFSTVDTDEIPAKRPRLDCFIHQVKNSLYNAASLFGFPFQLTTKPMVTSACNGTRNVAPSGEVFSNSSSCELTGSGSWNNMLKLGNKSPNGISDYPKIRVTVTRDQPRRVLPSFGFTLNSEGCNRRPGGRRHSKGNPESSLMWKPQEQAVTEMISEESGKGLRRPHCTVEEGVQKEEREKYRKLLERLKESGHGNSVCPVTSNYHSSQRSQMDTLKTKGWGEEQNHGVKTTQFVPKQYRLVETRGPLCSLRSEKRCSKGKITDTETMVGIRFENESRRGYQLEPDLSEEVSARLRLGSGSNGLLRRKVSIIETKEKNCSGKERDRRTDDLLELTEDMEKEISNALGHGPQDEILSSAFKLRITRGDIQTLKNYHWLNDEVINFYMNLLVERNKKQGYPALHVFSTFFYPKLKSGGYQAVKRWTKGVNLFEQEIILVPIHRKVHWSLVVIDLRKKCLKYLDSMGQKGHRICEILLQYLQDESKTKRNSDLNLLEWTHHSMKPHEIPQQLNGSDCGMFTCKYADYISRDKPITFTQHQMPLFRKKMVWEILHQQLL

signal (RLU, S/B) (SENP2): gave signals
signal (RLU, S/B) (SENP6): gave signals
Substance: Z-Arg-Leu-Arg-Gly-Gly (SEQ ID NO: 1)-amino-luciferin [DUB-glo ™]
